Laboratory results reported in patent publication US20260315494A1, “TREATMENT OF BREAST TISSUE” (Havah Therapeutics Pty Ltd, priority 2023, published 2026).
Where “and” joins values, the source holds several entries; their conditions need not be identical. Equal values may be shown once.

Assays:
human mTOR = assay: Western blot of mTOR in breast cancer explants treated with DHT; format: cell-based; conditions: for mTOR Western blot ratio to beta-Actin, average: average of 3 patients; for mTOR Western blot ratio to beta-Actin, average / mTOR Western blot ratio to beta-Actin: 5 nM anastrozole, 24 h; for mTOR Western blot ratio to beta-Actin: individual patient
Description: (§1) To evaluate the effect of DHT on breast cancer tissue, 3 primary tumours were examined in the presence of a low anastrozole level of 5 nM employing a modification of the method described by Jankovic-Karasoulos T. et al., 2008.
(§2) The 3 explant invasive breast carcinomas were examined for expression of mTOR and c-Myc and response to exposure to DHT by Western blotting. […] The band density was measured by densitometry, using Image Master VDS and Image Quant Analysis Software (Amersham Pharmacia Biotech, Hong Kong). The relative protein levels of mTOR or MYC and b-actin in the original total protein lysate from the breast preparations were obtained. mTOR or MYC protein expression was normalized to beta-actin protein expression. Immunizing host antibodies were produced with a synthetic peptide derived from the sequence of human mTOR or MYC, purified by peptide affinity chromatography and confirmed using control peptides. The results of the Western blot analysis for mTOR or MYC proteins in the 3 explant samples at baseline and after 24 hours of culture are shown in Table 3 and Table 4 for mTOR or MYC respectively. Cell lysates were immunoblotted with antibodies to mTOR or MYC. The experiment was performed twice with similar results. Data are expressed relative to beta-actin.

aromatase = conditions: increasing DHT in the breast, Perel; cited from earlier work
[1] = Single-dose pharmacokinetics of T+Ai pellet implant (80 mg testosterone + 4 mg anastrozole, subcutaneous); conditions: for concentration at 1 h: 1 h post-dose; for concentration at 2 h: 2 h post-dose; for concentration at 4 h: 4 h post-dose; for concentration at 8 h: 8 h post-dose; for concentration at 12 h: 12 h post-dose; for concentration at 24 h: 24 h post-dose; for concentration at 72 h: 72 h post-dose; for concentration at 1680 h: 1680 h post-dose; for concentration at 2016 h: 2016 h post-dose
Description: The premenopausal women were aged between 35 and 55 years of age with a BMI range of 20-30 kg/m^2. […] The implant was intended to be left in situ and was expected to be almost completely absorbed within three months following insertion.
A total of 11 subjects were dosed with the implant and included in the safety analysis set. All 11 subjects were included in the pharmacokinetics (PK) analysis set.
(NB: the sample collection time point at 6 hours post-dose was added for the third and subsequent subject and so serum measurements were not determined for the first two subjects as noted below).
Patients seeking treatment with the T+Ai for reduction in high MBD were eligible for the study. Following successful screening, subjects attended the Wellend Health Clinic for dosing. The trial was designed to dose all subjects while in the luteal phase of their menstrual cycle to avoid the highly changing hormonal environment of the follicular phase. Following insertion of the implant, PK blood sampling was carried out for a duration of three months (see below). Briefly, samples were taken repeatedly on the day of dosing, daily during the first week, weekly for the next four weeks and every second week during the last eight weeks of a total sampling period of three months.
The sampling schedule was revised with the addition of one blood sample (at 6 hours post-dose as discussed above), and no adjustment of the timing of existing time points was made. The duration of sampling was not extended.
Following dosing on Day 1, blood samples were taken pre-dose (within one hour of dosing) and at 1, 2, 4, 6, 8 and 12 hours. Participants returned for a blood sample to be taken at 9 am in the morning on Days 2, 3, 4, 5, 8, 15, 22, 29, 43, 57, 71 and 85.

PCa cells = conditions: cited from earlier work
androgen receptor (AR) = conditions: tumoural DHT from 1 nM up to 10 nM, Hickey 2021; cited from earlier work
5α-reductase = conditions: increasing DHT in the breast, McNamara 2014; cited from earlier work
[2] = test system: endogenous AR pathways / ER-mediated transcriptional activity; conditions: human explant tissue and breast cancer cell lines; cited from earlier work
AR/GATA3 = conditions: Hosseinzadeh 2024; cited from earlier work
human MYC = assay: Western blot of MYC in breast cancer explants treated with DHT; format: cell-based; conditions: for MYC Western blot ratio to beta-Actin / MYC Western blot ratio to beta-Actin, average: 24 h
Description: as §1, §2

breast tissue = conditions: high dose androgen (testosterone), Raths 2023; cited from earlier work
CRPC = conditions: with a CDK4/6 inhibitor, Han 2022; cited from earlier work
breast = conditions: injected prior to breast cancer surgery; cited from earlier work
[3] = on the basis of the present results
[4] = human, in vivo, sc, 80 mg, Measured serum testosterone, GeoMean, geometric mean
[5] = human, in vivo, sc, 80 mg, Measured serum testosterone, mean
[6] = human, in vivo, sc, 80 mg, Measured serum testosterone, median

## C[C@]12CCC(=O)C[C@@H]1CC[C@@H]1[C@@H]2CC[C@]2(C)[C@@H](O)CC[C@@H]12 [DHT, 5α-dihydrotestosterone]
Human mTOR; 0.1 nM DHT
  mTOR expression in words: markedly elevated
  mTOR Western blot ratio to beta-Actin, average: 1.01
  mTOR Western blot ratio to beta-Actin: 0.81 and 1.01 and 1.23
Human mTOR; 1 nM DHT
  mTOR expression in words: barely discernable
  mTOR Western blot ratio to beta-Actin, average: 0.04
  mTOR Western blot ratio to beta-Actin: 0.04 and 0.02 and 0.06
Human mTOR; 10 nM DHT
  mTOR expression in words: essentially not detected
  mTOR Western blot ratio to beta-Actin, average: 0.04
  mTOR Western blot ratio to beta-Actin: 0.03 and 0.05 and 0.04
Human mTOR; [3]
  DHT concentration required to inhibit induction of mTOR activity: at least 1 nM
aromatase
  aromatase in breast tissue: down regulation of aromatase
[1]; most samples
  serum DHT: not measurable in most samples
PCa cells; elevated DHT levels
  c-Myc expression associated with AR dimer: reduction in c-Myc expression
PCa cells; low level DHT
  mTOR activity associated with AR monomer: elevated mTOR activity
Androgen receptor (AR)
  AR tumour suppressor induction: can induce androgen receptor (AR) to become a tumour suppressor of estrogen receptor (ER) positive breast cancer
5α-reductase
  5α-reductase in breast tissue: up regulation of 5α-reductase
[2]
  ER-mediated transcriptional activity: can activate endogenous AR pathways to inhibit ER-mediated transcriptional activity
AR/GATA3
  AR/GATA3 binding: induces AR/GATA3 binding
Human MYC; 0.1 nM DHT
  Myc expression in words: markedly elevated
  suppression of c-Myc: unable to suppress c-Myc
Human MYC; 0.1 nM DHT, individual patient, 5 nM anastrozole
  MYC Western blot ratio to beta-Actin: 1.01 and 1.23
Human MYC; 1 nM DHT
  Myc expression in words: barely discernable
Human MYC; 1 nM DHT, individual patient, 5 nM anastrozole
  MYC Western blot ratio to beta-Actin: 0.02 and 0.06
Human MYC; 10 nM DHT
  Myc expression in words: essentially not detected
Human MYC; 10 nM DHT, individual patient, 5 nM anastrozole
  MYC Western blot ratio to beta-Actin: 0.05 and 0.04
Human MYC; 0.0001 µM
  MYC Western blot ratio to beta-Actin: 0.39
  MYC Western blot ratio to beta-Actin, average: 1.01
Human MYC; 0.001 µM
  MYC Western blot ratio to beta-Actin: 0.04
  MYC Western blot ratio to beta-Actin, average: 0.04
Human MYC; 0.01 µM
  MYC Western blot ratio to beta-Actin: 0.03
  MYC Western blot ratio to beta-Actin, average: 0.04
Human MYC; intra-tumoural DHT from 1 to 10 nM
  suppression of c-Myc: results in suppression of c-Myc
Human MYC; [3]
  DHT concentration required for suppression of cMyc: at least 1 nM

## C[C@]12CC[C@H]3[C@@H](CCC4=CC(=O)CC[C@@]43C)[C@@H]1CC[C@@H]2O [Testosterone, testosterone]
Breast tissue
  breast ductal structures: breast ductal structures shrunk
[1]; 12 weeks post-dose, 120960 min
  average serum testosterone concentration at 12 weeks: 0.8 ng/mL
[1]; all subjects, 12 weeks
  increase in serum testosterone compared with baseline: sustained in all subjects at 12 weeks
[1]; baseline, before implant
  average serum testosterone at baseline: 0.2 ng/mL
[1]; geometric mean, pre-dose
  Measured serum testosterone, GeoMean: 0.19 ng/mL
[1]; human, in vivo, sc, 80 mg
  Tmax: 6 to 12 h
[1]; [4]
  concentration at 1 h: 0.49 ng/mL
  concentration at 2 h: 0.6 ng/mL
  concentration at 4 h: 0.94 ng/mL
  concentration at 8 h: 3.29 ng/mL
  concentration at 12 h: 3.36 ng/mL
  concentration at 24 h: 2.39 ng/mL
  concentration at 72 h: 1.63 ng/mL
  concentration at 1680 h: 0.99 ng/mL
[1]; human, in vivo, sc, 80 mg, Measured serum testosterone, GeoMean, geometric mean, 6 h post-dose
  concentration at 6 h: 2.53 ng/mL
[1]; human, in vivo, sc, 80 mg, Measured serum testosterone, individual subject
  concentration at 1680 h: 0.791 ng/mL
[1]; [5]
  concentration at 1 h: 0.55 ng/mL
  concentration at 2 h: 0.73 ng/mL
  concentration at 4 h: 1.43 ng/mL
  concentration at 8 h: 3.55 ng/mL
  concentration at 12 h: 3.43 ng/mL
  concentration at 24 h: 2.45 ng/mL
  concentration at 72 h: 1.73 ng/mL
  concentration at 1680 h: 1 ng/mL
  concentration at 2016 h: 0.83 ng/mL
[1]; human, in vivo, sc, 80 mg, Measured serum testosterone, mean, 48 h post-dose
  concentration at 48 h: 1.83 ng/mL
[1]; human, in vivo, sc, 80 mg, Measured serum testosterone, mean, 168 h post-dose
  concentration at 168 h: 1.53 ng/mL
[1]; human, in vivo, sc, 80 mg, Measured serum testosterone, mean, 504 h post-dose
  concentration at 504 h: 2.26 ng/mL
[1]; human, in vivo, sc, 80 mg, Measured serum testosterone, mean, 1344 h post-dose
  concentration at 1344 h: 1.25 ng/mL
[1]; [6]
  concentration at 1 h: 0.47 ng/mL
  concentration at 2 h: 0.51 ng/mL
  concentration at 4 h: 0.92 ng/mL
  concentration at 1680 h: 1 ng/mL
  concentration at 2016 h: 0.85 ng/mL
[1]; human, in vivo, sc, 80 mg, Measured serum testosterone, median, 1008 h post-dose
  concentration at 1008 h: 1.4 ng/mL
[1]; mean, pre-dose
  Measured serum testosterone, mean: 0.21 ng/mL
[1]; median, pre-dose
  Measured serum testosterone, median: 0.19 ng/mL
[1]; serum
  average Cmax, serum testosterone: 4.1 ng/mL
[1]; serum, post-dose
  median Tmax for serum testosterone: 8 h
CRPC
  efficacy of high-testosterone treatment with CDK4/6 inhibitor: enhanced by a CDK4/6 inhibitor

## C[C@]12CCC(=O)C[C@@H]1CC[C@@H]1[C@@H]2CC[C@]2(C)[C@@H](O)CC[C@@H]12 [radioactive DHT]
breast
  accumulation of radioactive DHT: initially accumulated in the fat of the breast then strongly accumulated in the malignancy
